{"source": "patent US10688099B2", "about": "“Methods for modulating the amount of RNA transcripts” (PTC Therapeutics, Inc., priority 2013, dated 2020)", "test_system": "RNA isoforms in PNN 1-46 SMA type I patient-derived fibroblasts", "assay": "RNA Abundance Modulation (RNA isoform abundance, iFPM, HiSeq RNA sequencing)", "type": "cell-based, human", "details": "3 μM", "description": "Cells from a cell line of interest are cultured in conditions sufficient to yield the number of cells capable of generating enough RNA for subsequent sequencing steps. Cells from the tested cell line are contacted with a compound described herein.\nTo culture said cells, they are seeded, at appropriate concentrations in a volume of media in a cell culture container and incubated for 4, 5, 6, 7, 8, 9, 10, or more hours. A concentrated solution of compound in a vehicle (e.g., DMSO) is then added in sufficient volume to result in the intended final concentration of the compound, for example 100 nM, 500 nM, 1 μM, 5 μM, 10 μM, 15 μM, 20 μM, or more. The cells may also be treated with vehicle alone, as a control. A number of replicates of each concentration or control may be made (e.g., 2 replicates). The cells are then incubated at a constant temperature appropriate for cell culture of the particular cell line (e.g., 37° C.) for 6, 12, 18, 24, 48, or more hours. After incubation, the growth medium is removed and the cells are washed with the appropriate buffer (e.g., PBS). Cells are then removed from adherence to the cell culture container by treatment with a solution containing trypsin, and the trypsin subsequently quenched with the appropriate volume of buffer (e.g., DMEM-FBS). The cells are then pelleted with gentle centrifugation (e.g., ≤90×g centrifugal force) and resuspended in a buffer to lyse the cells for extraction of RNA. The cell lysates may then be frozen (e.g., at −80° C.) or, alternately, may immediately be used in a procedure to purify the RNA (e.g. by use of the RNEASY PLUS® minikit). The RNA from cell lysates is eluted in the appropriate volume of buffer (e.g., RNEASE-FREE H2O®). The resulting purified RNA may then be sequenced (e.g., using RNASeq) or analyzed using a human exon array (e.g., by GENECHIP® human exon array) to determine changes in the RNA levels in those cells treated with compound compared to those cells treated only with DMSO. The purified RNA may also be quantified by other methods known in the art.\nUsing the RNA data obtained from sequencing, exon array, or other methods, a statistical analysis can reveal changes in the RNA levels of compound-treated compared with control. For example, t-test p-values may be calculated for the data obtained through sequencing and exon array methods in order to compare compound-treated cells to those treated with the DMSO control. […] Analysis of the sequencing and exon array data may then also yield predictions about the cause of the aberrant amount of an RNA transcript in the cells (e.g., perturbation of RNA splicing, RNA transcription, or RNA stability). These predictions may be further confirmed by methods known in the art. For example, RT-PCR and RT-qPCR may be used to confirm the change in amount of RNA transcripts for one or more particular transcripts of interest.\nFollowing the methods described above in Example 1, PNN 1-46 SMA type I patient-derived fibroblasts were treated with 300 nM or 3 μM Compounds 774 and 808 in 0.5% DMSO.\n700,000 cells were seeded in 10 mL of medium (DMEM plus 10% FBS) in a T-75 flask. Cells were allowed to attach for at least 4 hrs, after which 50 μL of a 200× compound solution (100% DMSO) was added to each well, and the plate was incubated at 37° C. for 24 hrs.\nAt the end of the incubation period, the supernatant was removed and the cells where washed with PBS. TrypLE (Invitrogen) express solution was added (e.g. 1.5 mL per one T75 flask). The flasks were incubated for 3 to 5 min at 37° C. The trypsin was then quenched, e.g., by adding 10 mL DMEM-FBS.\nNext, the cells were pelleted using gentle centrifugation without exceeding 90×g centrifugal force. The supernatant was removed and the cell pellet was re-suspended in 600 μL RLT buffer (the RLT buffer was supplemented with beta-mercaptoethanol according to the RNeasy protocol manual) by pipetting up and down until the pellet was completely dissolved […]", "data": [{"molecule": "CCc1nc(C)cn2nc(-c3cc(=O)n4cc(C5CCN(C)CC5)cc(C)c4n3)cc12", "note": "[Compound 774]", "values": [{"measurement": "amp FC (x + 1)", "setting": "TGFBRAP1 NM_004257", "value": 156.98}, {"measurement": "ave Cpd", "setting": "TGFBRAP1 NM_004257", "value": 0, "unit": "iFPM"}, {"measurement": "FC (x + 1)", "setting": "TGFBRAP1 NM_001142621", "value": 1.6224}, {"measurement": "L2FC (x + 1)", "setting": "TGFBRAP1 NM_001142621", "value": 0.698}, {"measurement": "L2abs (Cpd-DMSO)", "setting": "TGFBRAP1 NM_001142621", "value": 7.42}, {"measurement": "abs (Cpd-DMSO)", "setting": "TGFBRAP1 NM_001142621", "value": 172, "unit": "iFPM"}, {"measurement": "amp FC (x + 1)", "setting": "TGFBRAP1 NM_001142621", "value": 1.62}, {"measurement": "ave Cpd", "setting": "TGFBRAP1 NM_001142621", "value": 446, "unit": "iFPM"}, {"measurement": "FC (x + 1)", "setting": "THADA AK025445", "value": 0.2651}, {"measurement": "L2FC (x + 1)", "setting": "THADA AK025445", "value": "−1.915"}, {"measurement": "L2abs (Cpd-DMSO)", "setting": "THADA AK025445", "value": 5.17}, {"measurement": "abs (Cpd-DMSO)", "setting": "THADA AK025445", "value": 36, "unit": "iFPM"}, {"measurement": "amp FC (x + 1)", "setting": "THADA AK025445", "value": 3.77}, {"measurement": "ave Cpd", "setting": "THADA AK025445", "value": 12, "unit": "iFPM"}, {"measurement": "FC (x + 1)", "setting": "THADA AK126824", "value": 0.1808}, {"measurement": "L2FC (x + 1)", "setting": "THADA AK126824", "value": "−2.468"}, {"measurement": "L2abs (Cpd-DMSO)", "setting": "THADA AK126824", "value": 2.55}, {"measurement": "abs (Cpd-DMSO)", "setting": "THADA AK126824", "value": 6, "unit": "iFPM"}, {"measurement": "amp FC (x + 1)", "setting": "THADA AK126824", "value": 5.53}, {"measurement": "ave Cpd", "setting": "THADA AK126824", "value": 0, "unit": "iFPM"}, {"measurement": "FC (x + 1)", "setting": "THADA AK307915", "value": 0.2071}, {"measurement": "L2FC (x + 1)", "setting": "THADA AK307915", "value": "−2.272"}, {"measurement": "L2abs (Cpd-DMSO)", "setting": "THADA AK307915", "value": 3.71}, {"measurement": "abs (Cpd-DMSO)", "setting": "THADA AK307915", "value": 13, "unit": "iFPM"}, {"measurement": "amp FC (x + 1)", "setting": "THADA AK307915", "value": 4.83}, {"measurement": "ave Cpd", "setting": "THADA AK307915", "value": 2, "unit": "iFPM"}, {"measurement": "FC (x + 1)", "setting": "THADA AL832141", "value": 1.7328}, {"measurement": "L2FC (x + 1)", "setting": "THADA AL832141", "value": 0.793}, {"measurement": "L2abs (Cpd-DMSO)", "setting": "THADA AL832141", "value": 0.72}, {"measurement": "abs (Cpd-DMSO)", "setting": "THADA AL832141", "value": 2, "unit": "iFPM"}, {"measurement": "amp FC (x + 1)", "setting": "THADA AL832141", "value": 1.73}, {"measurement": "ave Cpd", "setting": "THADA AL832141", "value": 3, "unit": "iFPM"}, {"measurement": "FC (x + 1)", "setting": "THADA AY149632", "value": 1.0000}, {"measurement": "L2FC (x + 1)", "setting": "THADA AY149632", "value": 0.000}, {"measurement": "L2abs (Cpd-DMSO)", "setting": "THADA AY149632", "value": 0}, {"measurement": "abs (Cpd-DMSO)", "setting": "THADA AY149632", "value": 0, "unit": "iFPM"}, {"measurement": "amp FC (x + 1)", "setting": "THADA AY149632", "value": 1.00}, {"measurement": "ave Cpd", "setting": "THADA AY149632", "value": 0, "unit": "iFPM"}, {"measurement": "FC (x + 1)", "setting": "THADA BX641038", "value": 0.6958}, {"measurement": "L2FC (x + 1)", "setting": "THADA BX641038", "value": "−0.523"}, {"measurement": "L2abs (Cpd-DMSO)", "setting": "THADA BX641038", "value": 0.60}, {"measurement": "abs (Cpd-DMSO)", "setting": "THADA BX641038", "value": 2, "unit": "iFPM"}, {"measurement": "amp FC (x + 1)", "setting": "THADA BX641038", "value": 1.44}, {"measurement": "ave Cpd", "setting": "THADA BX641038", "value": 2, "unit": "iFPM"}, {"measurement": "FC (x + 1)", "setting": "THADA NM_022065", "value": 0.3170}, {"measurement": "L2FC (x + 1)", "setting": "THADA NM_022065", "value": "−1.658"}, {"measurement": "L2abs (Cpd-DMSO)", "setting": "THADA NM_022065", "value": 9.36}, {"measurement": "abs (Cpd-DMSO)", "setting": "THADA NM_022065", "value": 657, "unit": "iFPM"}, {"measurement": "amp FC (x + 1)", "setting": "THADA NM_022065", "value": 3.15}, {"measurement": "ave Cpd", "setting": "THADA NM_022065", "value": 304, "unit": "iFPM"}, {"measurement": "FC (x + 1)", "setting": "THADA NM_001083953", "value": 0.0135}, {"measurement": "L2FC (x + 1)", "setting": "THADA NM_001083953", "value": "−6.211"}, {"measurement": "L2abs (Cpd-DMSO)", "setting": "THADA NM_001083953", "value": 6.19}, {"measurement": "abs (Cpd-DMSO)", "setting": "THADA NM_001083953", "value": 73, "unit": "iFPM"}, {"measurement": "amp FC (x + 1)", "setting": "THADA NM_001083953", "value": 74.06}, {"measurement": "ave Cpd", "setting": "THADA NM_001083953", "value": 0, "unit": "iFPM"}, {"measurement": "FC (x + 1)", "setting": "THADA NM_001271643", "value": 1.1557}, {"measurement": "L2FC (x + 1)", "setting": "THADA NM_001271643", "value": 0.209}, {"measurement": "L2abs (Cpd-DMSO)", "setting": "THADA NM_001271643", "value": 2.41}, {"measurement": "abs (Cpd-DMSO)", "setting": "THADA NM_001271643", "value": 5, "unit": "iFPM"}, {"measurement": "amp FC (x + 1)", "setting": "THADA NM_001271643", "value": 1.16}, {"measurement": "ave Cpd", "setting": "THADA NM_001271643", "value": 38, "unit": "iFPM"}, {"measurement": "FC (x + 1)", "setting": "THADA NM_001271644", "value": 4.4176}, {"measurement": "L2FC (x + 1)", "setting": "THADA NM_001271644", "value": 2.143}, {"measurement": "L2abs (Cpd-DMSO)", "setting": "THADA NM_001271644", "value": 3.80}, {"measurement": "abs (Cpd-DMSO)", "setting": "THADA NM_001271644", "value": 14, "unit": "iFPM"}, {"measurement": "amp FC (x + 1)", "setting": "THADA NM_001271644", "value": 4.42}, {"measurement": "ave Cpd", "setting": "THADA NM_001271644", "value": 17, "unit": "iFPM"}, {"measurement": "FC (x + 1)", "setting": "THADA NR_073394", "value": 0.6844}, {"measurement": "L2FC (x + 1)", "setting": "THADA NR_073394", "value": "−0.547"}, {"measurement": "L2abs (Cpd-DMSO)", "setting": "THADA NR_073394", "value": "−0.13"}, {"measurement": "abs (Cpd-DMSO)", "setting": "THADA NR_073394", "value": 1, "unit": "iFPM"}, {"measurement": "amp FC (x + 1)", "setting": "THADA NR_073394", "value": 1.46}, {"measurement": "ave Cpd", "setting": "THADA NR_073394", "value": 1, "unit": "iFPM"}, {"measurement": "FC (x + 1)", "setting": "TIMP2 AK294290", "value": 0.0109}]}]}
